# From US8377899B2, “Composition for treatment of cervix cancer” (priority 2006, dated 2013)
# Key:
# HeLa cells [1] = assay: MTT assay, cytotoxic effect of cisplatin; format: cell-based; conditions: cisplatin 0.625-80 μM for 48 hours
# Protocol: The present inventors also investigated cytotoxic effect of cisplatin on HeLa cells by MTT assay. HeLa cells were treated with different concentrations of cisplatin (0.625, 1.25, 2.5, 5, 10, 25, 40, and 80 μM) for 48 hours, followed by MTT assay to measure the cell growth inhibitory effect.
# HeLa cells [2] = assay: Long-term combination therapy of E6 siRNA and cisplatin, trypan blue cell count; format: cell-based; conditions: 7th day; siRNA 100 nM transfected twice and/or cisplatin 1.25 μM for 4 days
# Protocol: To evaluate cytotoxic effect of the long-term combination therapy of synthetic E6 siRNA and cisplatin chemotherapy on cervix cancer cells, HeLa cells were co-treated for a long period of time.
# Then, the single therapy group (treated with 18E6-1 siRNA, 18E6-2 siRNA or cisplatin alone) and the combination therapy group (treated with cisplatin and 18E6-1 siRNA or 18E6-2 siRNA) were compared. To obtain the maximum RNAi efficiency, siRNA transfection was repeated after 24 hours from the first transfection. For the transfection, 13 μl of opti-MEM (Gibco, USA) and 2 μl of oligofectamine were added into a 1.5 ml E-tube. To the other 1.5 ml E-tube were added 100 nM of siRNA and opti-MEM to make total volume […]. 5 minutes later, the content of the E-tube containing oligofectamine was transferred into the other E-tube to make the total volume 200 μl, which stood by for 20 minutes to form a complex. […] On the 7th day of culture, the cells were recovered by treating with trypsin, stained with 0.3% trypan blue solution and counted with hemocytometer.
# The cells were cultured in normal growth medium for additional 7 days, and harvested by treating them with trypsin. The cells were stained with 0.3% trypan blue and counted with hemocytometer (FIG. 11). […]
# HeLa cells [3] = assay: Senescence, SA β-Gal activity staining; format: cell-based
# Protocol: The present inventors further investigated whether the combination therapy of cisplatin with 18E6 siRNAs induced HeLa cell senescence. The inventors measured SA β-Gal activity on the 7th day of the treatment. The cells were washed with PBS using a senescence detection kit (BIoVision, USA) and treated with SA-β-gal staining solution at 37° C. for 12 hours. The cells stained with blue were observed under microscope (×100-200).
# Three photographs of the cells were taken randomly to investigate the stained cells (FIG. 17).
# HeLa-Luc cells = assay: Cervix cancer xenograft model, luciferase bioluminescence tumor size; format: in vivo, balb-C nude mouse; conditions: after 2 weeks; siRNA 2 mg/kg and/or cisplatin 0.5 mg/kg, intraperitoneal, every other day by turns, 7 times
# Protocol: To generate the cervix cancer xenograft model, 5×10^6 HeLa-Luc cells were injected subcutaneously into a 5 week old female balb-C nude mouse. 7 days later, tumor generation was confirmed. Then, the mouse was treated with siRNA (2 mg/kg) and cisplatin (0.5 mg/kg) every other day by taking turns, 7 times (intraperitoneal injection).
# Isofluran was used as an anesthetic for in vivo imaging. Luciferase activity, which increases with the growth of a tumor, was measured 15 minutes after intraperitoneal injection of luciferin.
# Bioluminescence signal released by luciferase was represented as the unit of photons/second/steradian/cm2, and the luciferase signal increases as the tumor grew.
# HeLa cells [4] = assay: Apoptosis, annexin V and propidium iodide flow cytometry; format: cell-based; conditions: 7th day of the treatment, attached cells
# Description: To examine apoptosis in the cells treated with 18E6-1 siRNA or 18E6-2 siRNA, the cells attached on the 7th day of the treatment were collected, stained with annexin V and propidium iodide (PI) and analyzed by flow cytometry. Apoptosis rates between the single therapy group and the combination therapy group were compared.
# HeLa cells [5] = assay: Cell morphology after single and combination therapy (phase contrast microscope); format: cell-based; conditions: 7th day of the treatment
# Description: The present inventors cultured the cells in normal media additionally for 7 days to observe morphological changes.
# HeLa cells [6] = assay: Western blotting of p53 in HeLa cells treated with cisplatin; format: cell-based; conditions: 40 μM of cisplatin
# Protocol: To investigate the effect of cisplatin on cervix cancer cells, HeLa cells were treated with cisplatin. 24 hours before the treatment, 1×10^6 cells were distributed in 100 mm culture dish and cultured at 37° C. with 5% CO2 and 100% humidity. Then, the cells were treated with 40 μM of cisplatin. 24 hours later, Western blotting was performed to measure the level of p53.
smiles,measurement,setting,value
N.N.[Cl][Pt][Cl] [cisplatin],cell survival rate,HeLa cells [1],reduced cisplatin dose dependently
same,cell growth (cell number),HeLa cells [2],not significant
same,number of stained cells in three random photographs,HeLa cells [3]; 7th day of the treatment (FIG. 17),Only a small amount of cells were stained
same,SA-β-Gal stained (blue) cells,"HeLa cells [3]; 7th day of the treatment, microscope (FIG. 16)",some of the blue cells
same,tumor size,HeLa-Luc cells,not much different
same,apoptosis,HeLa cells [4],not increased
same,cell growth observed by microscope,HeLa cells [5],grown regularly
same,expression level of p53,HeLa cells [6],dramatically increased
same,time at which the level of p53 reached the peak,HeLa cells [6],24 h
same,time for which the high level of p53 was constantly observed,HeLa cells [6],48 h
